Measured values as given in patent US20250295732A1, “COMPOSITIONS AND METHODS FOR ACTIVATING INNATE IMMUNITY” (Zoetis Services LLC, priority 2021, published 2025).

Key:
Format in all cases: cell-based
[1] = system: bovine monocyte-derived macrophages; test: LPS-induced lactate production (LactateGlo); details: CATH2 24 hr, removal, 3-day rest, LPS 24 hours; vs vehicle
Text: (§1) Peripheral blood mononuclear cells (PBMC) were isolated from bovine blood using ficoll gradients. Bovine monocytes were isolated from PBMC using magnetic assisted cell sorting to positively select for CD14+ cells using anti-human CD14 microbeads (Miltenyi Biotec). Purified bovine blood CD14+ monocytes were differentiated into macrophages using an M2-skewing differentiation factor (recombinant bovine M-CSF) over 7 days then exposed to CATH2 or a vehicle control in the presence of bovine casein to mimic aspects of the mammary gland for 24 hr. Following treatment, vehicle and drug were removed and cells were washed to eliminate residual drug and monocyte-derived macrophages were rested for 3 days in order to assess reprogramming. Following the rest period, a subset of vehicle- and CATH2-trained monocyte-derived macrophages were assessed for epigenetic and transcriptomic changes. The remaining cells were challenged with LPS or E. coli bioparticle labeled with pH-sensitive pHrodo green dye and key parameters for macrophage activation/immune response were assessed including glycolytic activity, surface marker expression, gene expression, cytokine production, phagocytosis, reactive nitrogen species production, and miRNA profiling.
Lactate levels in cell culture supernatant were quantified using LactateGlo® (Promega) according to manufacturer's instructions.

[2] = system: bovine monocyte-derived macrophages; test: ChIP-Seq for H3K27ac; details: after CATH2 exposure and 3-day rest, pre-LPS; vs vehicle
Text: as §1, with “profiling. […]” for “profiling.”

[3] = system: bovine monocyte-derived macrophages; test: mRNASeq transcriptome analysis; details: for Number of significantly differentially expressed genes, P < 0.01 & |log2FC| > 1 / Number of significantly differentially expressed genes, P < 0.05 & |log2FC| > 1 / Number of significantly differentially expressed genes, Padj < 0.05 & |log2FC| > 0.585 / Number of significantly differentially expressed genes, Padj < 0.05 & |log2FC| > 1 / Number of significantly differentially expressed genes, Padj < 0.1 & |log2FC| > 1: CATH2_vs_vehicle
Text: as §1
Bovine monocyte-derived macrophages were lysed in Buffer RLT with addition of (3-mercaptoethanol (QIAGEN) and stored at −80° C. until miRNA/mRNA isolations could be performed. Total RNA including miRNA was isolated from cell lysates using the miRNeasy Tissues/Cells Advanced kit (QIAGEN) following the manufacturer's instructions. mRNA and miRNA libraries were prepared using the TruSeq Stranded mRNA Library Prep Kit (Illumina) and QIAseq miRNA Library Kit, respectively (QIAGEN) according to the manufacturer's instructions. Libraries were run on the Illumina NextSeq550 System. Sequencing data were analyzed using CLC Genomics Workbench software and QIAGEN Ingenuity Pathway Analysis (IPA).

[4] = system: bovine monocyte-derived macrophages; test: Reactive nitrogen species (nitrite, Griess Reagent System); details: E. coli bioparticles 10 μg/mL 24 hours after CATH2 24 hr and 3-day rest; vs vehicle
Text: as §1, with “Following treatment, vehicle and drug were removed and cells were washed to eliminate residual drug and monocyte-derived macrophages were rested for 3 days in order to assess reprogramming.” left out, “profiling. Nitrite, a primary breakdown product of nitric oxide, in cell culture supernatant were quantified using Griess Reagent System (Promega) according to manufacturer's instructions.” for “profiling.”

[5] = 0 hrs_post_CATH2 (prior to CATH2 treatment)
[6] = 0 hrs_post_LPS (after CATH2 and 3-day rest)

**Q.** What does the source list for “RFGRFLRKIRRFRPKVTITIQGSARFG [CATH2, cathelicidin 2 peptide]”?
**A.** LPS-induced lactate production in supernatant [1]: increased lactate production; ChIP-Seq peaks with H3K27ac mark [2]: increased number of peaks with H3K27ac mark; CD14 and CD80 gene expression (RNA sequence data) ([3]; 8 hr following LPS stimulation, CATH2 vs vehicle): significantly upregulated; Number of significantly differentially expressed genes, P < 0.01 & |log2FC| > 1 [3, 5]: 0; Number of significantly differentially expressed genes, P < 0.05 & |log2FC| > 1 [3, 5]: 0; Number of significantly differentially expressed genes, Padj < 0.05 & |log2FC| > 0.585 [3, 5]: 0; Number of significantly differentially expressed genes, Padj < 0.05 & |log2FC| > 1 [3, 5]: 0; Number of significantly differentially expressed genes, Padj < 0.1 & |log2FC| > 1 [3, 5]: 0; Number of significantly differentially expressed genes, P < 0.01 & |log2FC| > 1 [3, 6]: 169; Number of significantly differentially expressed genes, P < 0.05 & |log2FC| > 1 [3, 6]: 244; Number of significantly differentially expressed genes, Padj < 0.05 & |log2FC| > 0.585 [3, 6]: 171; Number of significantly differentially expressed genes, Padj < 0.05 & |log2FC| > 1 [3, 6]: 96; Number of significantly differentially expressed genes, Padj < 0.1 & |log2FC| > 1 [3, 6]: 134; Number of significantly differentially expressed genes, P < 0.01 & |log2FC| > 1 ([3]; 8 hrs_post_CATH2): 6; Number of significantly differentially expressed genes, P < 0.05 & |log2FC| > 1 ([3]; 8 hrs_post_CATH2): 27; Number of significantly differentially expressed genes, Padj < 0.05 & |log2FC| > 0.585 ([3]; 8 hrs_post_CATH2): 0; Number of significantly differentially expressed genes, Padj < 0.05 & |log2FC| > 1 ([3]; 8 hrs_post_CATH2): 0; Number of significantly differentially expressed genes, Padj < 0.1 & |log2FC| > 1 ([3]; 8 hrs_post_CATH2): 0; Number of significantly differentially expressed genes, P < 0.01 & |log2FC| > 1 ([3]; 8 hrs_post_LPS): 509; Number of significantly differentially expressed genes, P < 0.05 & |log2FC| > 1 ([3]; 8 hrs_post_LPS): 593; Number of significantly differentially expressed genes, Padj < 0.05 & |log2FC| > 0.585 ([3]; 8 hrs_post_LPS): 962; Number of significantly differentially expressed genes, Padj < 0.05 & |log2FC| > 1 ([3]; 8 hrs_post_LPS): 479; Number of significantly differentially expressed genes, Padj < 0.1 & |log2FC| > 1 ([3]; 8 hrs_post_LPS): 532; Number of significantly differentially expressed genes, P < 0.01 & |log2FC| > 1 ([3]; 24 hrs_post_CATH2): 11; Number of significantly differentially expressed genes, P < 0.05 & |log2FC| > 1 ([3]; 24 hrs_post_CATH2): 28; Number of significantly differentially expressed genes, Padj < 0.05 & |log2FC| > 0.585 ([3]; 24 hrs_post_CATH2): 0; Number of significantly differentially expressed genes, Padj < 0.05 & |log2FC| > 1 ([3]; 24 hrs_post_CATH2): 0; Number of significantly differentially expressed genes, Padj < 0.1 & |log2FC| > 1 ([3]; 24 hrs_post_CATH2): 0; Number of significantly differentially expressed genes, P < 0.01 & |log2FC| > 1 ([3]; 24 hrs_post_LPS): 328; Number of significantly differentially expressed genes, P < 0.05 & |log2FC| > 1 ([3]; 24 hrs_post_LPS): 393; Number of significantly differentially expressed genes, Padj < 0.05 & |log2FC| > 0.585 ([3]; 24 hrs_post_LPS): 520; Number of significantly differentially expressed genes, Padj < 0.05 & |log2FC| > 1 ([3]; 24 hrs_post_LPS): 279; Number of significantly differentially expressed genes, Padj < 0.1 & |log2FC| > 1 ([3]; 24 hrs_post_LPS): 330; DEG related to Rho family signaling ([3]; CATH2 vs vehicle): downregulated; Type I interferon induced genes (e.g. ISG15, MX2, OAS2) ([3]; CATH2 vs vehicle): significantly upregulated; Immune response gene expression (IL1A/B, IL6, IL8, IL12, IL23, CCL2, NOS2, IL10) ([3]; pre- and post-LPS after CATH2 treatment and 3-day rest, vs vehicle): significantly upregulated; RNS (nitrite) response to E. coli bioparticle challenge [4]: enhanced production of nitrogen oxide species/reactive nitrogen species (RNS) responses
